Source: US9023789B2, “Amylin analogs and pharmaceutical compositions thereof” (Novo Nordisk A/S, priority 2012, dated 2015)
Numbered stars: 1 amine (or outer) side, 2 acyl side, 3 side chain; on linkers, the order of the positions; unused ones are H or OH. Bridge positions count the residues as written; N and C are the ends. Peptide text beside a SMILES is read from it. * marks the point of attachment. C20 diacid = O=C(O)CCCCCCCCCCCCCCCCCCC(=O)*; γGlu = O=C(O)[C@H](CCC(=O)[*:2])N[*:1]

Tests used:
[1] = target: T1, human amylin receptor (membranes from Amylin 3(a)/CRE-luc cells) (Homo sapiens, UniProt O60896+P30988); experiment: ASSAY (V) binding to the human amylin receptor (SPA, 125I-rat amylin);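 further: competition binding of cell membranes (35 ng/µL) mixed with SPA beads in 384-well plates at 40 µL total volume, read by scintillation counting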
T1 construct: expressed in transfected cells
T1 sequence (P30988 25-474): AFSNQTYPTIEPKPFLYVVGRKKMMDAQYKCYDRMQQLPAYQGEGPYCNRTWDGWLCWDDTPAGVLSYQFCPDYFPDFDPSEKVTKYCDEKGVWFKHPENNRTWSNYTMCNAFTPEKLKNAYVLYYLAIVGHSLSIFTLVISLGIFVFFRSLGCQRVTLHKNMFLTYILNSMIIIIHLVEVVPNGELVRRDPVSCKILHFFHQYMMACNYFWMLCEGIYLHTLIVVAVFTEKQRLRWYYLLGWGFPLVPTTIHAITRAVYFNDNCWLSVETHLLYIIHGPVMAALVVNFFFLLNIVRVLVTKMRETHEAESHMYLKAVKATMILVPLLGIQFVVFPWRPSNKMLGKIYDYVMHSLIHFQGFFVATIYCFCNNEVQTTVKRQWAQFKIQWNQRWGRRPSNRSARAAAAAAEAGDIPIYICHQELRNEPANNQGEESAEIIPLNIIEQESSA
T1 sequence (O60896 24-148 partner): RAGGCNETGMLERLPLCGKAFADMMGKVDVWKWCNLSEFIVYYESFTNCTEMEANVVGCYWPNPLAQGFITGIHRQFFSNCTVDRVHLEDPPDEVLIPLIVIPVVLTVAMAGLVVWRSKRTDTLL

[2] = target: T2, human amylin 3(a) receptor (human calcitonin receptor + RAMP-3) in BHK570 cells (Homo sapiens, UniProt O60896+P30988); experiment: ASSAY (II)a functional assay, human amylin receptor (CRE luciferase); assay type: cell-based
T2 construct: expressed in transfected cells
Summary of the method: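 Receptor activation is measured as cAMP-driven CRE-luciferase expression in BHK cells expressing the calcitonin receptor, with RAMP-3 co-expressed to form the amylin 3(a) receptor. Cells are exposed to compound for 3 hours at 37° C, and luciferase is then quantified by luminescence.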

rat calcitonin receptor = target: T3, rat calcitonin receptor (Rattus norvegicus, UniProt P32214); experiment: ASSAY (VIII) binding to the rat calcitonin receptor; conditions: Table 7, read-out: rCTR bind IC50
T3 construct: expressed in transfected cells; host or cells: BHK tk'ts 13 (transient, FuGENE 6), membranes
T3 sequence (P32214 25-479 isoform P32214-2 limits assumed): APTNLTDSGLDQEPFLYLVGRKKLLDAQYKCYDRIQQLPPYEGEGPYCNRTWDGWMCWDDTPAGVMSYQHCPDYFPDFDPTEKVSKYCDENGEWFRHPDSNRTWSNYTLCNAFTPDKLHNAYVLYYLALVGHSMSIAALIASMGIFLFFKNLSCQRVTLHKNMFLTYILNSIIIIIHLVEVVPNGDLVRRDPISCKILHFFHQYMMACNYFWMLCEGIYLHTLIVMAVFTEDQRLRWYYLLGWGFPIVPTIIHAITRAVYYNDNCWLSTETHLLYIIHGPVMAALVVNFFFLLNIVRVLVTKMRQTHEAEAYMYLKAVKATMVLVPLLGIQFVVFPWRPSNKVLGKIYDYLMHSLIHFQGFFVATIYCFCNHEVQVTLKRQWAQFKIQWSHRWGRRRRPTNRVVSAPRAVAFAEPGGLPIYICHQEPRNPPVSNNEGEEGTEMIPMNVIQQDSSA
Summary of the method: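 BHK tk′ts 13 cells, transient rat calcitonin receptor transfection; DMEM + 10% FBS; harvest ~48 h post-transfection; membrane prep.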

[3] = Table 5, selectivity, hCTR bind IC50 / hAmylin-R bind IC50
[4] = Table 5a, selectivity, hCTR bind IC50 / hAmylin-R bind IC50
[5] = Table 7, human binding selectivity, included for comparison
[6] = Table 7a (preferred compounds), human binding selectivity, included for comparison
[7] = ratio of human calcitonin receptor binding IC50 to human amylin receptor binding IC50
[8] = hCTR funct. EC50 divided by hAmylin-R funct. EC50
[9] = hCTR funct. EC50 over hAmylin-R funct. EC50
[10] = human functional selectivity: hCTR funct. EC50 / hAmylin-R funct. EC50
[11] = Table 5b, selectivity, hCTR bind IC50 / hAmylin-R bind IC50
[12] = Table 5c, selectivity, hCTR bind IC50 / hAmylin-R bind IC50

`CC[C@H](C)[C@H](NC(=O)[C@H](C)NC(=O)CNC(=O)[C@H](Cc1ccccc1)NC(=O)[C@H](CC(N)=O)NC(=O)[C@@H]1CCCN1C(=O)[C@H](CO)NC(=O)[C@H](CO)NC(=O)[C@H](Cc1c[nH]cn1)NC(=O)[C@H](CCCNC(=N)N)NC(=O)[C@H](CC(C)C)NC(=O)[C@H](Cc1ccccc1)NC(=O)[C@H](CCC(=O)O)NC(=O)[C@H](C)NC(=O)[C@H](CC(C)C)NC(=O)[C@H](CCCNC(=N)N)NC(=O)[C@H](CCC(N)=O)NC(=O)[C@@H](NC(=O)[C@H](C)NC(=O)[C@@H]1CSSC[C@H](NC(=O)[C@H](CCCCN)NC(=O)CC[C@H](NC(=O)CCCCCCCCCCCCCCCCCCC(=O)O)C(=O)O)C(=O)N[C@@H](CC(N)=O)C(=O)N[C@@H]([C@@H](C)O)C(=O)N[C@@H](C)C(=O)N[C@@H]([C@@H](C)O)C(=O)N1)[C@@H](C)O)C(=O)N1CCC[C@H]1C(=O)N[C@@H](CO)C(=O)N[C@@H](CO)C(=O)N[C@H](C(=O)N[C@@H](CC(N)=O)C(=O)N[C@H](C(=O)NCC(=O)N[C@@H](CO)C(=O)N[C@@H](CCC(=O)O)C(=O)N[C@H](C(=O)N[C@@H](Cc1ccc(O)cc1)C(N)=O)[C@@H](C)O)C(C)C)[C@@H](C)O` [Example 22] ({C20 diacid-γGlu}-KCNTATCATQRLAEFLRHSSPNFGAIPSSTNVGSETY-NH2; disulfide 2-7) was tested, and the “Ratio hCT/hAmylin binding” value [1, 3] was 12.3, the “Ratio hCT/hAmylin binding” value [1, 4] was 12.3 and the “Ratio hCT/hAmylin binding” value [1, 5] was 12.3. For the same compound, the “Ratio hCT/hAmylin binding” value [1, 6] was 12.3, the “Ratio hCT/hAmylin binding” value [1, 7] was 12.3 and the “Ratio hCT/hAmylin funct.” value ([2]; hCTR funct. EC50 / hAmylin-R funct. EC50) was 3.8. The “Ratio hCT/hAmylin funct.” value [2, 8] was 3.8, the “Ratio hCT/hAmylin funct.” value [2, 9] was 3.8 and the “Ratio hCT/hAmylin funct.” value [2, 10] was 3.8. For the same compound, the IC50 (rat calcitonin receptor) was 0.0625 µM.

For `CC[C@H](C)[C@H](NC(=O)[C@H](C)NC(=O)CNC(=O)[C@H](Cc1ccccc1)NC(=O)[C@H](CC(N)=O)NC(=O)[C@@H]1CCCN1C(=O)[C@H](CO)NC(=O)[C@H](CO)NC(=O)[C@H](Cc1c[nH]cn1)NC(=O)[C@H](CCCNC(=N)N)NC(=O)[C@H](CC(C)C)NC(=O)[C@H](Cc1ccccc1)NC(=O)[C@H](CC(N)=O)NC(=O)[C@H](C)NC(=O)[C@H](CC(C)C)NC(=O)[C@H](CCCNC(=N)N)NC(=O)[C@H](CCC(N)=O)NC(=O)[C@@H](NC(=O)[C@H](C)NC(=O)[C@@H]1CSSC[C@H](NC(=O)[C@H](CCCCN)NC(=O)CC[C@H](NC(=O)CCCCCCCCCCCCCCCCCCC(=O)O)C(=O)O)C(=O)N[C@@H](CC(N)=O)C(=O)N[C@@H]([C@@H](C)O)C(=O)N[C@@H](C)C(=O)N[C@@H]([C@@H](C)O)C(=O)N1)[C@@H](C)O)C(=O)N1CCC[C@H]1C(=O)N[C@@H](CO)C(=O)N[C@@H](CO)C(=O)N[C@H](C(=O)N[C@@H](CC(N)=O)C(=O)N[C@H](C(=O)NCC(=O)N[C@@H](CO)C(=O)N[C@@H](CCC(=O)O)C(=O)N[C@H](C(=O)N[C@@H](Cc1ccc(O)cc1)C(N)=O)[C@@H](C)O)C(C)C)[C@@H](C)O` [Example 23], the “Ratio hCT/hAmylin binding” value [1, 3] was 25.0, the “Ratio hCT/hAmylin binding” value [1, 4] was 25.0 and the “Ratio hCT/hAmylin binding” value [1, 11] was 25.0. For the same compound, the “Ratio hCT/hAmylin binding” value [1, 12] was 25.0, the “Ratio hCT/hAmylin binding” value [1, 5] was 25.0 and the “Ratio hCT/hAmylin binding” value [1, 6] was 25.0. The “Ratio hCT/hAmylin binding” value [1, 7] was 25.0, the “Ratio hCT/hAmylin funct.” value [2, 8] was 8.9 and the “Ratio hCT/hAmylin funct.” value [2, 9] was 8.9. For the same compound, the “Ratio hCT/hAmylin funct.” value [2, 10] was 8.9 and the IC50 (rat calcitonin receptor) was 0.0799 µM.

With `CC[C@H](C)[C@H](NC(=O)[C@H](C)NC(=O)CNC(=O)[C@H](Cc1ccccc1)NC(=O)[C@H](CC(N)=O)NC(=O)[C@@H]1CCCN1C(=O)[C@H](CO)NC(=O)[C@H](CO)NC(=O)[C@H](Cc1c[nH]cn1)NC(=O)[C@H](CCCNC(=N)N)NC(=O)[C@H](CC(C)C)NC(=O)[C@H](Cc1ccccc1)NC(=O)[C@H](CC(N)=O)NC(=O)[C@H](C)NC(=O)[C@H](CC(C)C)NC(=O)[C@H](CCCNC(=N)N)NC(=O)[C@H](CCC(N)=O)NC(=O)[C@@H](NC(=O)[C@H](C)NC(=O)[C@@H]1CSSC[C@H](NC(=O)[C@@H](N)CCCCNC(=O)COCCOCCNC(=O)COCCOCCNC(=O)CC[C@H](NC(=O)CCCCCCCCCCCCCCCCCCC(=O)O)C(=O)O)C(=O)N[C@@H](CC(N)=O)C(=O)N[C@@H]([C@@H](C)O)C(=O)N[C@@H](C)C(=O)N[C@@H]([C@@H](C)O)C(=O)N1)[C@@H](C)O)C(=O)N1CCC[C@H]1C(=O)N[C@@H](CO)C(=O)N[C@@H](CO)C(=O)N[C@H](C(=O)N[C@@H](CC(N)=O)C(=O)N[C@H](C(=O)NCC(=O)N[C@@H](CO)C(=O)N[C@@H](CCC(=O)O)C(=O)N[C@H](C(=O)N[C@@H](Cc1ccc(O)cc1)C(N)=O)[C@@H](C)O)C(C)C)[C@@H](C)O` [Example 25] the “Ratio hCT/hAmylin binding” value [1, 3] was 56.5, the “Ratio hCT/hAmylin binding” value [1, 4] was 56.5 and the “Ratio hCT/hAmylin binding” value [1, 11] was 56.5. The “Ratio hCT/hAmylin binding” value [1, 12] was 56.5, the “Ratio hCT/hAmylin binding” value [1, 5] was 56.5 and the “Ratio hCT/hAmylin binding” value [1, 6] was 56.5. For the same compound, the “Ratio hCT/hAmylin binding” value [1, 7] was 56.5, the “Ratio hCT/hAmylin funct.” value [2, 8] was 46.2 and the “Ratio hCT/hAmylin funct.” value [2, 9] was 46.2. For the same compound, the “Ratio hCT/hAmylin funct.” value [2, 10] was 46.2 and the IC50 (rat calcitonin receptor) was 0.131 µM.

`CC[C@H](C)[C@H](NC(=O)[C@H](C)NC(=O)CNC(=O)[C@H](Cc1ccccc1)NC(=O)[C@H](CC(N)=O)NC(=O)[C@@H]1CCCN1C(=O)[C@H](CO)NC(=O)[C@H](CO)NC(=O)[C@H](Cc1c[nH]cn1)NC(=O)[C@H](CCCNC(=N)N)NC(=O)[C@H](CC(C)C)NC(=O)[C@H](Cc1ccccc1)NC(=O)[C@H](CC(N)=O)NC(=O)[C@H](C)NC(=O)[C@H](CC(C)C)NC(=O)[C@H](CCCNC(=N)N)NC(=O)[C@H](CCC(N)=O)NC(=O)[C@@H](NC(=O)[C@H](C)NC(=O)[C@@H]1CSSC[C@H](NC(=O)[C@@H](N)CCCCNC(=O)CC[C@H](NC(=O)CCCCCCCCCCCCCCCCCCC(=O)O)C(=O)O)C(=O)N[C@@H](CC(N)=O)C(=O)N[C@@H]([C@@H](C)O)C(=O)N[C@@H](C)C(=O)N[C@@H]([C@@H](C)O)C(=O)N1)[C@@H](C)O)C(=O)N1CCC[C@H]1C(=O)N[C@@H](CO)C(=O)N[C@@H](CO)C(=O)N[C@H](C(=O)N[C@@H](CC(N)=O)C(=O)N[C@H](C(=O)NCC(=O)N[C@@H](CO)C(=O)N[C@@H](CCC(=O)O)C(=O)N[C@H](C(=O)N[C@@H](Cc1ccc(O)cc1)C(N)=O)[C@@H](C)O)C(C)C)[C@@H](C)O` [Example 27] was tested, and the “Ratio hCT/hAmylin binding” value [1, 3] was 41.3, the “Ratio hCT/hAmylin binding” value [1, 4] was 41.3 and the “Ratio hCT/hAmylin binding” value [1, 11] was 41.3. The “Ratio hCT/hAmylin binding” value [1, 12] was 41.3, the “Ratio hCT/hAmylin binding” value [1, 5] was 41.3 and the “Ratio hCT/hAmylin binding” value [1, 6] was 41.3. For the same compound, the “Ratio hCT/hAmylin binding” value [1, 7] was 41.3, the “Ratio hCT/hAmylin funct.” value [2, 8] was 22.6 and the “Ratio hCT/hAmylin funct.” value [2, 9] was 22.6. The “Ratio hCT/hAmylin funct.” value [2, 10] was 22.6 and the IC50 (rat calcitonin receptor) was 0.0902 µM.
